Target: human GLP-1R (Homo sapiens, UniProt P43220)
Assay: GLP-1R Cell Assay 1: cAMP Hunter CHO-K1 GLP1R Gs cell line, HitHunter cAMP assay
Assay type: cell-based
Settings: cAMP Hunter CHO-K1 GLP1R Gs cells, percent activity normalized to Exendin-4
In short: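 Luminescent enzyme-fragment-complementation immunoassay quantified cellular cAMP after 30-60 min compound exposure at 37 °C in HBSS/10 mM HEPES. Data from duplicate runs were normalised to Exendin-4 and fitted nonlinearly for EC50.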

human GLP-1R, sequence (P43220 24-463): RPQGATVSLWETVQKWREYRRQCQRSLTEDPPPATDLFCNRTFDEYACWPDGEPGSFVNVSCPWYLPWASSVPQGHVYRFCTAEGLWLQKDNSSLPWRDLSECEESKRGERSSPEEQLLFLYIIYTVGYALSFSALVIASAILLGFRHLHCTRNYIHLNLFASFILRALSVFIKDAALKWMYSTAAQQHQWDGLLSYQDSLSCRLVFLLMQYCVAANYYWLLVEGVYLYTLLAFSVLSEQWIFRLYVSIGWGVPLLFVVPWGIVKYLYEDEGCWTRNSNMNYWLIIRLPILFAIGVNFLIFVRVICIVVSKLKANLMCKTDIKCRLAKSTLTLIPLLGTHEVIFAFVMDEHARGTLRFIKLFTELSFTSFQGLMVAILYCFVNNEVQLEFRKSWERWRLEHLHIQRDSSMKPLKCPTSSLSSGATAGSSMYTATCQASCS

EC50 (Table 2) [nM]	EC50 (Table 3) [nM]	Compound
239		O=C(O)c1ccc2nc(CN3CCN(c4cccc(OCC5CCC5)n4)CC3)n(C[C@@H]3CCO3)c2c1 [Compound 88, (S)-2-((4-(6-(cyclobutylmethoxy)pyridin-2-yl)piperazin-1-yl)methyl)-1-(oxetan-2-ylmethyl)-1H-benzo[d]imidazole-6-carboxylic acid]
	> 500	O=C(O)c1ccc2nc(CN3CCN(c4ccc5c(n4)N(Cc4ccccc4)CCO5)CC3)n(C[C@@H]3CCO3)c2c1 [Compound 149, (S)-2-((4-(4-benzyl-3,4-dihydro-2H-pyrido[3,2-b][1,4]oxazin-6-yl)piperazin-1-yl)methyl)-1-(oxetan-2-ylmethyl)-1H-benzo[d]imidazole-6-carboxylic acid/]
> 500		O=C(O)c1ccc2nc(CN3CCN(c4cccc(OCC5CCS(=O)(=O)CC5)n4)CC3)n(C[C@@H]3CCO3)c2c1 [Compound 54, (S)-2-((4-(6-((1,1-dioxidotetrahydro-2H-thiopyran-4-yl)methoxy)pyridin-2-yl)piperazin-1-yl)methyl)-1-(oxetan-2-ylmethyl)-1H-benzo[d]imidazole-6-carboxylic acid]
207		NC(=O)c1cnc(COc2cccc(N3CCN(Cc4nc5ccc(C(=O)O)cc5n4C[C@@H]4CCO4)CC3)n2)nc1 [Compound 81, (S)-2-((4-(6-((5-carbamoylpyrimidin-2-yl)methoxy)pyridin-2-yl)piperazin-1-yl)methyl)-1-(oxetan-2-ylmethyl)-1H-benzo[d]imidazole-6-carboxylic acid]
1.71		O=C(O)c1ccc2nc(CN3CCN(c4cccc(OCc5nc6c(s5)CCCC6)n4)CC3)n(C[C@@H]3CCO3)c2c1 [Compound 131, (S)-1-(oxetan-2-ylmethyl)-2-((4-(6-((4,5,6,7-tetrahydrobenzo[d]thiazol-2-yl)methoxy)pyridin-2-yl)piperazin-1-yl)methyl)-1H-benzo[d]imidazole-6-carboxylic acid]
0.788		N#Cc1cc(F)c2c(c1)CCN(c1cccc(C3CCN(Cc4nc5ccc(C(=O)O)cc5n4C[C@@H]4CCO4)CC3)n1)C2 [Compound 13, (S)-2-((4-(6-(6-cyano-8-fluoro-3,4-dihydroisoquinolin-2(1H)-yl)pyridin-2-yl)piperidin-1-yl)methyl)-1-(oxetan-2-ylmethyl)-1H-benzo[d]imidazole-6-carboxylic acid]
> 500		O=C(O)c1ccc2nc(CN3CCN(c4cccc(OCCC5COC5)n4)CC3)n(C[C@@H]3CCO3)c2c1 [Compound 35, (S)-1-(oxetan-2-ylmethyl)-2-((4-(6-(2-(oxetan-3-yl)ethoxy)pyridin-2-yl)piperazin-1-yl)methyl)-1H-benzo[d]imidazole-6-carboxylic acid]
5.54		O=C(O)c1ccc2nc(CN3CCN(c4cccc(OCc5ccc6ocnc6c5)n4)CC3)n(C[C@@H]3CCO3)c2c1 [Compound 103, (S)-2-((4-(6-(benzo[d]oxazol-5-ylmethoxy)pyridin-2-yl)piperazin-1-yl)methyl)-1-(oxetan-2-ylmethyl)-1H-benzo[d]imidazole-6-carboxylic acid]
4.15		N#Cc1ccc(COc2nn(C3CCN(Cc4nc5ccc(C(=O)O)cc5n4C[C@@H]4CCO4)CC3)cc2F)c(F)c1 [Compound 108, (S)-2-((4-(3-((4-cyano-2-fluorobenzyl)oxy)-4-fluoro-1H-pyrazol-1-yl)piperidin-1-yl)methyl)-1-(oxetan-2-ylmethyl)-1H-benzo[d]imidazole-6-carboxylic acid]
46.6		C[C@@H]1COC[C@H](N2CCC(c3cccc(OCc4ccc(C#N)cc4F)n3)CC2)c2nc3ccc(C(=O)O)cc3n21 [Compound 95, (1R,5R)-5-(4-(6-((4-cyano-2-fluorobenzyl)oxy)pyridin-2-yl)piperidin-1-yl)-1-methyl-1,2,4,5-tetrahydrobenzo[4,5]imidazo[1,2-d][1,4]oxazepine-9-carboxylic acid]
152		O=C(O)c1ccc2nc3n(c2c1)CCOC[C@@H]3N1CCC(c2cccc(OCc3ccccc3)n2)CC1 [Compound 94, (R)-5-(4-(6-(benzyloxy)pyridin-2-yl)piperidin-1-yl)-1,2,4,5-tetrahydrobenzo[4,5]imidazo[1,2-d][1,4]oxazepine-9-carboxylic acid]
0.246		O=C(O)c1ccc2nc(CN3CCC(c4cccc(OCc5nc6ccccc6s5)n4)CC3)n(C[C@@H]3CCO3)c2c1 [Compound 14, (S)-2-((4-(6-(benzo[d]thiazol-2-ylmethoxy)pyridin-2-yl)piperidin-1-yl)methyl)-1-(oxetan-2-ylmethyl)-1H-benzo[d]imidazole-6-carboxylic acid]
420		O=C(O)c1ccc2nc(CN3CCN(c4cccc(OC5CN(c6ccccc6)C5)n4)CC3)n(C[C@@H]3CCO3)c2c1 [Compound 39, (S)-1-(oxetan-2-ylmethyl)-2-((4-(6-((1-phenylazetidin-3-yl)oxy)pyridin-2-yl)piperazin-1-yl)methyl)-1H-benzo[d]imidazole-6-carboxylic acid]
0.998		O=C(O)c1ccc2nc(CN3CCN(c4cccc(OCc5cc6ccccc6s5)n4)CC3)n(C[C@@H]3CCO3)c2c1 [Compound 65, (S)-2-((4-(6-(benzo[b]thiophen-2-ylmethoxy)pyridin-2-yl)piperazin-1-yl)methyl)-1-(oxetan-2-ylmethyl)-1H-benzo[d]imidazole-6-carboxylic acid]
	> 500	N#Cc1ccc(CCn2ccc(C3CCN(Cc4nc5ccc(C(=O)O)cc5n4C[C@@H]4CCO4)CC3)n2)c(F)c1 [Compound 145, (S)-2-((4-(1-(4-cyano-2-fluorophenethyl)-1H-pyrazol-3-yl)piperidin-1-yl)methyl)-1-(oxetan-2-ylmethyl)-1H-benzo[d]imidazole-6-carboxylic acid]
	> 500	O=C(O)c1ccc2nc(CN3CCN(c4nc(OCc5ccccc5)cc5ccccc45)CC3)n(C[C@@H]3CCO3)c2c1 [Compound 157, (S)-2-((4-(3-(benzyloxy)isoquinolin-1-yl)piperazin-1-yl)methyl)-1-(oxetan-2-ylmethyl)-1H-benzo[d]imidazole-6-carboxylic acid]
> 500		O=C(O)c1ccc2nc(CN3CCN(c4cccc(OCC5CC6(CCOCC6)C5)n4)CC3)n(C[C@@H]3CCO3)c2c1 [Compound 48, (S)-2-((4-(6-((7-oxaspiro[3.5]nonan-2-yl)methoxy)pyridin-2-yl)piperazin-1-yl)methyl)-1-(oxetan-2-ylmethyl)-1H-benzo[d]imidazole-6-carboxylic acid]
5.93		N#Cc1ccc(COc2nn(C3CCN(Cc4nc5ccc(C(=O)O)cc5n4C[C@@H]4CCO4)CC3)cc2C(F)(F)F)c(F)c1 [Compound 117, (S)-2-((4-(3-((4-cyano-2-fluorobenzyl)oxy)-4-(trifluoromethyl)-1H-pyrazol-1-yl)piperidin-1-yl)methyl)-1-(oxetan-2-ylmethyl)-1H-benzo[d]imidazole-6-carboxylic acid]
> 500		O=C(O)c1ccc2nc(CN3CCN(c4cccc(OC5CCC6(CCC6)CC5)n4)CC3)n(C[C@@H]3CCO3)c2c1 [Compound 49, (S)-1-(oxetan-2-ylmethyl)-2-((4-(6-(spiro[3.5]nonan-7-yloxy)pyridin-2-yl)piperazin-1-yl)methyl)-1H-benzo[d]imidazole-6-carboxylic acid]
	> 500	O=C(O)c1ccc2nc(CN3CCN(c4ccc5cc(-c6ccccc6)oc5n4)CC3)n(C[C@@H]3CCO3)c2c1 [Compound 160, (S)-1-(oxetan-2-ylmethyl)-2-((4-(2-phenylfuro[2,3-b]pyridin-6-yl)piperazin-1-yl)methyl)-1H-benzo[d]imidazole-6-carboxylic acid]
	> 500	N#Cc1ccc(-n2ccc3c(C4CCN(Cc5nc6ccc(C(=O)O)cc6n5C[C@@H]5CCO5)CC4)cccc3c2=O)c(F)c1 [Compound 147, (S)-2-((4-(2-(4-cyano-2-fluorophenyl)-1-oxo-1,2-dihydroisoquinolin-5-yl)piperidin-1-yl)methyl)-1-(oxetan-2-ylmethyl)-1H-benzo[d]imidazole-6-carboxylic acid]

Compound	EC50 (Table 2) [nM]	EC50 (Table 3) [nM]
N#Cc1ccc(COc2cccc([C@@]34CCN(Cc5nc6ccc(C(=O)O)cc6n5C[C@@H]5CCO5)C[C@@H]3C4)n2)c(F)c1 (single isomer, unassigned) [Compound 9-P1]	0.171	
CCn1cncc1Cn1c(CN2CC[C@]3(c4cccc(N5CCc6cc(C#N)cc(F)c6C5)n4)C[C@@H]3C2)nc2ccc(C(=O)O)cc21 [Compound 184-P2, 2-(((1S,6R)-6-(6-(6-cyano-8-fluoro-3,4-dihydroisoquinolin-2(1H)-yl)pyridin-2-yl)-3-azabicyclo[3.1.0]heptan-3-yl)methyl)-1-((1-ethyl-1H-imidazol-5-yl)methyl)-1H-benzo[d]imidazole-6-carboxylic acid]		0.414
N#Cc1cc(F)c2c(c1)CCN(c1cccc(C34CCN(Cc5nc6ccc(C(=O)O)cc6n5CC5CCO5)CC3C4)n1)C2 (stereo not drawn) [Compound 168, 2-((6-(6-(6-cyano-8-fluoro-3,4-dihydroisoquinolin-2(1H)-yl)pyridin-2-yl)-3-azabicyclo[4.1.0]heptan-3-yl)methyl)-1-(oxetan-2-ylmethyl)-1H-benzo[d]imidazole-6-carboxylic acid]		17.4
O=C(O)c1ccc2nc(CN3CC[C@@]4(c5cccc(OCc6nc7ccccc7s6)n5)C[C@H]4C3)n(C[C@@H]3CCO3)c2c1 (single isomer, unassigned) [Compound 104-P1]	4.91	
CCn1cncc1Cn1c(CN2CC[C@@]3(c4cccc(OCc5ccc(C#N)cc5F)n4)C[C@H]3C2)nc2ccc(C(=O)O)cc21 (single isomer, unassigned) [Compound 121-P1]	0.0329	
CCn1cncc1Cn1c(CN2CC[C@@]3(c4cccc(N5CCc6cc(C#N)cc(F)c6C5)n4)C[C@H]3C2)nc2ccc(C(=O)O)cc21 [Compound 184-P1, 2-(((1R,6S)-6-(6-(6-cyano-8-fluoro-3,4-dihydroisoquinolin-2(1H)-yl)pyridin-2-yl)-3-azabicyclo[4.1.0]heptan-3-yl)methyl)-1-((1-ethyl-1H-imidazol-5-yl)methyl)-1H-benzo[d]imidazole-6-carboxylic acid]		0.266

From patent publication US20220089578A1, “COMPOUNDS AS GLP-1R AGONISTS” (Terns Pharmaceuticals, Inc., priority 2020, published 2022)
